Like-named read-outs stand apart in the source and are kept apart here. Where no end group is shown, it is not given here.
Key:
Roseomonas mucosa (RM) = test: Effectiveness of peptides on spiked fuel samples (aqueous layer); assay type: cell-based; design: key: (+) =1 (implying peptide activity in fuel environment); (X) = 0 (implying no activity in the desired range, indicated by microbial proliferation); Fuel x = -1(implying no activity in fuel environment); conditions: initial screening in spiked fuel
Method: (§1) To study the partitioning of microbes in fuel tanks, filter-sterilized fuel was mixed with BH medium in a 1:1 (v/v) ratio. The inoculum was added to the aqueous phase at the bottom to simulate growth in the aqueous layer of fuel tanks and incubated aerobically at 30 °C for 30 days. Visible growth was assessed, and aliquots from both the aqueous and fuel phases were plated on nutrient agar plates to evaluate microbial growth. Peptides were initially added to the aqueous layer of microbially spiked fuel samples for screening the effectiveness in the fuel environment. The study was further extended over a longer duration, and incubated under aerobic conditions at 30 °C for 30 days. Microbial growth was monitored at regular intervals by plating aliquots from the aqueous layer on the nutrient agar plates.
(§2) The engineered peptides were administered at their respective MICs to the aqueous layer of simulated fuel samples, and samples from both the aqueous and solvent (fuel) layers were removed at intervals of 7, 14, 21, and 30 days and plated on LBA plates to assess cell viability (Table S5).

[1] = tested on: Macrococcus caseolyticus (MC); test: as above; assay type: cell-based; design: key: (+) =1 (implying peptide activity in fuel environment); (X) = 0 (implying no activity in the desired range, indicated by microbial proliferation); Fuel x = -1(implying no activity in fuel environment); conditions: initial screening in spiked fuel
Method: as §1, §2

[2] = tested on: Dermacoccus nishinomiyaensis (DN); test: as above; assay type: cell-based; design: key: (+) =1 (implying peptide activity in fuel environment); (X) = 0 (implying no activity in the desired range, indicated by microbial proliferation); Fuel x = -1(implying no activity in fuel environment); conditions: initial screening in spiked fuel
Method: as §1, §2

[3] = tested on: Bacillus licheniformis (BL); test: as above; assay type: cell-based; design: key: (+) =1 (implying peptide activity in fuel environment); (X) = 0 (implying no activity in the desired range, indicated by microbial proliferation); Fuel x = -1(implying no activity in fuel environment); conditions: initial screening in spiked fuel
Method: as §1, §2

[4] = tested on: Pseudomonas aeruginosa (PA); test: as above; assay type: cell-based; design: key: (+) =1 (implying peptide activity in fuel environment); (X) = 0 (implying no activity in the desired range, indicated by microbial proliferation); Fuel x = -1(implying no activity in fuel environment); conditions: initial screening in spiked fuel
Method: as §1, §2

[5] = tested on: Sphingomonas paucimobilis (SP); test: as above; assay type: cell-based; design: key: (+) =1 (implying peptide activity in fuel environment); (X) = 0 (implying no activity in the desired range, indicated by microbial proliferation); Fuel x = -1(implying no activity in fuel environment); conditions: initial screening in spiked fuel
Method: as §1, §2

[6] = tested on: Micrococcus yunnanensis (MY); test: as above; assay type: cell-based; design: key: (+) =1 (implying peptide activity in fuel environment); (X) = 0 (implying no activity in the desired range, indicated by microbial proliferation); Fuel x = -1(implying no activity in fuel environment); conditions: initial screening in spiked fuel
Method: as §1, §2

Kocuria rosea (KR) = test: as above; assay type: cell-based; design: key: (+) =1 (implying peptide activity in fuel environment); (X) = 0 (implying no activity in the desired range, indicated by microbial proliferation); Fuel x = -1(implying no activity in fuel environment); conditions: initial screening in spiked fuel
Method: as §1, §2

Hormoconis resinae (HR) = test: as above; assay type: cell-based; design: key: (+) =1 (implying peptide activity in fuel environment); (X) = 0 (implying no activity in the desired range, indicated by microbial proliferation); Fuel x = -1(implying no activity in fuel environment); conditions: initial screening in spiked fuel
Method: as §1, §2

[7] = tested on: microbial clusters MY, KR, DN, MC, BL, RM, SP, PA, HR; test: Broad-spectrum activity score (in-house scoring matrix); conditions: sum over 9 microbial clusters: (+) = 1, (X) = 0, Fuel x = -1
Method: Table S4. Summarizing the broad-spectrum activity of the peptides, considering the MIC value/ efficacy to control microbial growth upon fuel co-incubation
Peptides Bacterial clusters Fungal
Actinobacteria Firmicutes Proteobacteria Asco- […]
Peptides identified based on the scoring matrix, where (+) =1 (implying peptide activity in fuel environment); (X) = 0 (implying no activity in the desired range, indicated by microbial proliferation); Fuel x = -1(implying no activity in fuel environment).
Clearly, P17 is the best performing peptide in vitro across diverse microbial phyla as well as when incubated in the fuel environment. Based on the activity of the selected peptides, the best

[8] = HPLC retention time as a function of peptide hydrophobicity; assay type: physicochemical; conditions: chromatographic, Polaris 5 C18-A reverse phase, 0.1% TFA water / 0.1% TFA acetonitrile gradient, 30 min, 300 μM peptide
Method: The purity of the peptides was ascertained by high-performance liquid chromatography (HPLC) using Polaris 5 C18-A […] × 4.6 mm reverse phase Zorbax columns from Agilent Technologies. The buffer system contained 0.1% (v/v) TFA in 100% water and 0.1% (v/v) TFA in 100% acetonitrile. Each peptide sample contained 300 μM peptides dissolved in an acetonitrile–water (1:4) mixture. A constant gradient of the two solvent systems was used to generate the chromatogram for 30 min after sample injection.

[9] = tested on: Dermacoccus nishinomiyaensis (DN) ATCC 29093; assay type: cell-based
Method: (§3) All of the bacterial species were grown overnight at 37 °C in LB broth. 10^7 CFU/mL of cells were resuspended in fresh culture and grown until the mid log phase. , The bacterial cells were adjusted to a concentration of 5 × 10^5 CFU/mL to quantify the MIC. Equal volumes of the respective bacterial cultures were incubated with the serially diluted peptides in 96-well microtiter plate and incubated overnight at 37 °C in ambient air. Microorganisms without peptides were treated as the positive control, while uninoculated broth was used as the negative control. The MIC was taken as the lowest peptide concentration at which observable bacteria growth was inhibited, as measured by a microplate reader (Biotek Synergy H1 microplate reader). Experiments were performed in triplicates, and the mean MIC values were determined. A similar study was performed to understand the effect of peptide purity, i.e., ranging from 70 to 95%, on the peptide MIC.

[10] = tested on: Bacillus licheniformis (BL) ATCC 14580; assay type: cell-based
Method: as §3

[11] = tested on: Micrococcus yunnanensis (MY) ATCC 12698; assay type: cell-based
Method: as §3

[12] = tested on: Sphingomonas paucimobilis (SP); assay type: cell-based
Method: as §3

[13] = tested on: Macrococcus caseolyticus (MC) ATCC 13548; assay type: cell-based
Method: as §3

[14] = tested on: Pseudomonas aeruginosa (PA) ATCC 39327; assay type: cell-based
Method: as §3

[15] = tested on: Kocuria rosea (KR) ATCC 186; assay type: cell-based
Method: as §3

[16] = LB broth, 5 × 10^5 CFU/mL, overnight 37 °C, mean of triplicates, “–” = no detectable activity

## CC[C@H](C)[C@H](N)C(=O)N[C@@H](CC(C)C)C(=O)N[C@H](C(=O)N[C@@H](Cc1c[nH]c2ccccc12)C(=O)N[C@@H](CCCCN)C(=O)N[C@@H](Cc1c[nH]c2ccccc12)C(=O)N1CCC[C@H]1C(=O)N[C@@H](Cc1c[nH]c2ccccc12)C(=O)N[C@@H](Cc1c[nH]c2ccccc12)C(=O)N1CCC[C@H]1C(=O)N[C@@H](Cc1c[nH]c2ccccc12)C(=O)N[C@@H](CCCNC(=N)N)C(=O)N[C@@H](CCCNC(=N)N)C(=O)O)C(C)C [P12]
Roseomonas mucosa (RM)
  activity considering MIC value/efficacy upon fuel co-incubation: X
[1]
  activity considering MIC value/efficacy upon fuel co-incubation: +
[2]
  activity considering MIC value/efficacy upon fuel co-incubation: +
[3]
  activity considering MIC value/efficacy upon fuel co-incubation: +
[4]
  activity considering MIC value/efficacy upon fuel co-incubation: X
[5]
  activity considering MIC value/efficacy upon fuel co-incubation: +
[6]
  activity considering MIC value/efficacy upon fuel co-incubation: X
Kocuria rosea (KR)
  activity considering MIC value/efficacy upon fuel co-incubation: X
Hormoconis resinae (HR)
  activity considering MIC value/efficacy upon fuel co-incubation: X
[7]
  Score: 4
[8]
  R t, retention time of peptide on HPLC column as a function of peptide hydrophobicity: 12.903 min
[9]
  MIC: 0.9 µM
[10]; ATCC 14580
  MIC: 3.9 µM
[11]
  MIC: 0.9 µM
[12]
  MIC: 0.9 µM
[13]
  MIC: 0.9 µM
[14]; ATCC 39327
  MIC: 7.8 µM

## CC[C@H](C)[C@H](N)C(=O)N[C@@H](CC(C)C)C(=O)N[C@@H](Cc1c[nH]c2ccccc12)C(=O)N[C@@H](Cc1c[nH]c2ccccc12)C(=O)N[C@@H](CCCCN)C(=O)N[C@@H](Cc1c[nH]c2ccccc12)C(=O)N1CCC[C@H]1C(=O)N[C@@H](Cc1c[nH]c2ccccc12)C(=O)N[C@@H](Cc1c[nH]c2ccccc12)C(=O)N1CCC[C@H]1C(=O)N[C@@H](Cc1c[nH]c2ccccc12)C(=O)N[C@@H](CCCNC(=N)N)C(=O)N[C@@H](CCCNC(=N)N)C(=O)O [P15]
Roseomonas mucosa (RM)
  activity considering MIC value/efficacy upon fuel co-incubation: X
[1]
  activity considering MIC value/efficacy upon fuel co-incubation: +
[2]
  activity considering MIC value/efficacy upon fuel co-incubation: X
[3]
  activity considering MIC value/efficacy upon fuel co-incubation: +
[4]
  activity considering MIC value/efficacy upon fuel co-incubation: X
[5]
  activity considering MIC value/efficacy upon fuel co-incubation: +
[6]
  activity considering MIC value/efficacy upon fuel co-incubation: X
Kocuria rosea (KR)
  activity considering MIC value/efficacy upon fuel co-incubation: X
Hormoconis resinae (HR)
  activity considering MIC value/efficacy upon fuel co-incubation: X
[7]
  Score: 3
[8]
  R t, retention time of peptide on HPLC column as a function of peptide hydrophobicity: 14.327 min
[10]; ATCC 14580
  MIC: 0.9 µM
[12]
  MIC: 0.9 µM
[13]
  MIC: 0.9 µM

## ILPWRWPWWPWRR [P10]
Roseomonas mucosa (RM)
  activity considering MIC value/efficacy upon fuel co-incubation: X
[1]
  activity considering MIC value/efficacy upon fuel co-incubation: X
[2]
  activity considering MIC value/efficacy upon fuel co-incubation: X
[3]
  activity considering MIC value/efficacy upon fuel co-incubation: +
[4]
  activity considering MIC value/efficacy upon fuel co-incubation: X
[5]
  activity considering MIC value/efficacy upon fuel co-incubation: X
[6]
  activity considering MIC value/efficacy upon fuel co-incubation: X
Kocuria rosea (KR)
  activity considering MIC value/efficacy upon fuel co-incubation: X
Hormoconis resinae (HR)
  activity considering MIC value/efficacy upon fuel co-incubation: X
[7]
  Score: 1
[8]
  R t, retention time of peptide on HPLC column as a function of peptide hydrophobicity: 12.417 min
[10]; [16]
  MIC: 3.9 µM
[12]; [16]
  MIC: 7.8 µM
[14]; [16]
  MIC: 31.25 µM

## ILPWKFPWWPWRR [P9]
Roseomonas mucosa (RM)
  activity considering MIC value/efficacy upon fuel co-incubation: X
[1]
  activity considering MIC value/efficacy upon fuel co-incubation: +
[2]
  activity considering MIC value/efficacy upon fuel co-incubation: +
[3]
  activity considering MIC value/efficacy upon fuel co-incubation: +
[4]
  activity considering MIC value/efficacy upon fuel co-incubation: X
[5]
  activity considering MIC value/efficacy upon fuel co-incubation: X
[6]
  activity considering MIC value/efficacy upon fuel co-incubation: +
Kocuria rosea (KR)
  activity considering MIC value/efficacy upon fuel co-incubation: X
Hormoconis resinae (HR)
  activity considering MIC value/efficacy upon fuel co-incubation: X
[7]
  Score: 4
[8]
  R t, retention time of peptide on HPLC column as a function of peptide hydrophobicity: 12.610 min
[9]
  MIC: 0.9 µM
[10]; ATCC 14580
  MIC: 3.9 µM
[11]
  MIC: 0.9 µM
[12]
  MIC: 7.8 µM
[13]
  MIC: 0.9 µM
[14]; ATCC 39327
  MIC: 31.25 µM

## CC(C)C[C@H](NC(=O)[C@@H](N)Cc1ccc(O)cc1)C(=O)N1CCC[C@H]1C(=O)N[C@@H](Cc1c[nH]c2ccccc12)C(=O)N[C@@H](CCCCN)C(=O)N[C@@H](Cc1c[nH]c2ccccc12)C(=O)N1CCC[C@H]1C(=O)N[C@@H](Cc1c[nH]c2ccccc12)C(=O)N[C@@H](Cc1c[nH]c2ccccc12)C(=O)N1CCC[C@H]1C(=O)N[C@@H](Cc1c[nH]c2ccccc12)C(=O)N[C@@H](CCCNC(=N)N)C(=O)N[C@@H](CCCNC(=N)N)C(=O)O [P14]
Roseomonas mucosa (RM)
  activity considering MIC value/efficacy upon fuel co-incubation: X
[1]
  activity considering MIC value/efficacy upon fuel co-incubation: X
[2]
  activity considering MIC value/efficacy upon fuel co-incubation: X
[3]
  activity considering MIC value/efficacy upon fuel co-incubation: +
[4]
  activity considering MIC value/efficacy upon fuel co-incubation: X
[5]
  activity considering MIC value/efficacy upon fuel co-incubation: +
[6]
  activity considering MIC value/efficacy upon fuel co-incubation: X
Kocuria rosea (KR)
  activity considering MIC value/efficacy upon fuel co-incubation: Fuel x
Hormoconis resinae (HR)
  activity considering MIC value/efficacy upon fuel co-incubation: X
[7]
  Score: 1
[8]
  R t, retention time of peptide on HPLC column as a function of peptide hydrophobicity: 12.279 min
[10]; ATCC 14580
  MIC: 3.9 µM
[12]
  MIC: 0.9 µM
[15]
  MIC: 0.9 µM
